Holding throughout (assay type): cell-based
Experiment [1] has as its system PC3. Nature of the experiment: Test A: Cytostatic Cell Culture Assay (GI50), PC3. Particulars: Homo sapiens, PC-3, 120 h; PC3 cells, 5 days, SRB; read-out: G150 Prostate PC3. The source says: (§1) Test A: Cytostatic Cell Culture Assay (GI50)
(§2) This assay is based on quantification of cell counts by a calorimetric detection of the cell associated proteins. The assay relies on the ability of sulforhodamine B (SRB) to bind to protein components of cells that have been fixed to tissue-culture plates by trichloroacetic acid (TCA). SRB is a bright-pink aminoxanthene dye with two sulfonic groups that bind to basic amino-acid residues under mild acidic conditions, and dissociate under basic conditions. As the binding of SRB is stoichiometric, the amount of dye extracted from stained cells is directly proportional to the cell mass.
(§3) Cell lines: All cell lines are obtained from ATCC (Manassas, Va.). Cultivation media containing Glutanax, and trypsin are purchased from Invitrogen (Carlsbad, Calif.). Doxorubicin, Clofarabine, TCA and SRB are from Sigma-Aldrich (St. Louis, Mo.). Gemcitabine is obtained from Moravek Biochemicals (Brea, Calif.)
(§4) • 1. Trypsinize the sub-confluent cells, count them, and adjust the cell concentrations according to the cell counts listed in Table 1. • 2. Distribute the cells into the 96-well plates in 150 μL of media. Incubate the plates overnight in humidified CO2 incubator at 37° C. • 3. Fix one plate of each cell line with TCA. Discard the cultivation media from the plates by flicking them gently and add 100 μL cold 10% (vol/vol) TCA to each well. Incubate the plates at 4 degree refrigerator for 1 hour. Discard TCA from the plates by flicking them gently. Rinse plates four times in a washing basin containing tap water. Store the plates at room temperature. These plates represent cell counts on day zero. • 4. Prepare a set of medium solutions containing various concentrations of tested compounds by making 5-fold serial dilutions in 96-well plate. Add 50 μL of the diluted compounds per well. Include controls with untreated cells and cells treated with doxorubicin, clofarabine and gemcitabine. • 5. Incubate the plates for 5 days at 37° C. • 6. Fix the plates with TCA. Discard the cultivation media from the plates by flicking them gently and add 100 μL cold 10% (vol/vol) TCA to each well. Incubate the plates at 4 degree refrigerator for 1 hour. Discard TCA from the plates by flicking them gently. Rinse plates four times in a washing basin containing tap water. • 7. Remove excess water by tapping the plates face down, gently on a paper towel. Allow the plates to air-dry at room temperature. • 8. Add 100 μL of 0.057% SRB solution in 1% (vol/vol) acetic acid to each well of the plates fixed with TCA on day zero and five. Leave at room temperature for 30 minutes. • 9. Flick the plates gently to discard SRB. Rinse the plates four times with 1% (vol/vol) Acetic Acid. • 10. Store the plates at 370 incubator to facilitate faster drying. • 11. Once the plates are completely dry, add 200 μL of 10 mM Tris base solution (pH 10.5) to each well. Leave at room temperature for 30 minutes for SRB to solubilize. • 12. Measure the OD at 500 nm in a microplate reader. • 13. Calculate the percentage of cell-growth inhibition using the next formula: % of control cell growth=100×(ODsample−mean ODday0)/(ODneg control−mean ODday0)
(§5) For GI50 determination, plot a dose-response curves between the compound concentration and percent of growth inhibition. GI50 values can be derived by fitting dose-response curves using sigmoidal dose response equation.

The test system of experiment [2] is Du145. Briefly: Test A: Cytostatic Cell Culture Assay (GI50), Du145. The conditions noted are these: Homo sapiens, DU-145, 120 h; Du145 cells, 5 days, SRB; read-out: G150 Prostate Du145.
From the text: as §1, §2, §3, §4, §5

Experiment [3] deals with A549. Briefly: Test A: Cytostatic Cell Culture Assay (GI50), A549. The conditions noted are these: Homo sapiens, 120 h; A549 cells, 5 days, SRB; read-out: G150 Lung A549.
From the text: as §1, §2, §3, §4, §5

Experiment [4] has as its system HCT15. Nature of the experiment: Test A: Cytostatic Cell Culture Assay (GI50), HCT15. The conditions noted are these: Homo sapiens, HCT-15, 120 h; HCT15 cells, 5 days, SRB; read-out: G150 Colon HCT15.
From the text: as §1, §2, §3, §4, §5

Experiment [5] has as its system Human T-lymphoid cell line CCRF-CEM. Briefly: Cell cycle distribution in human T-lymphoid cells (propidium iodide, flow cytometry). Particulars: 72 hours; for G1 % / G2/M % / S %: 0.3 μM. The method, then: Effects of the Compounds on Cell Cycle Distribution in Human T-Lymphoid Cells
Human T-lymphoid cell line CCRF-CEM is treated with tested compounds for 72 hours at the concentration corresponding to the CC50 value of each compound. At the end of incubation, cells are harvested by centrifugation, washed, and fixed in ethanol. Fixed cells are stained with propidium iodide in a buffer containing RNaseA and the cell cycle distribution analysis is performed by flow cytometry using BD FACSAria instrument. Data are processed using BD FACSDiva software v4.1 and presented as a percentage of analyzed cell population in Phase G1, S, and G2/M. Cell cycle distribution is determined in parallel for untreated and treated cells and relative change for each cell cycle phase is calculated.
The data represent changes in the frequency of each cell cycle phase in treated cells relative to untreated control (the relative fraction of each analyzed cell cycle phase in untreated control has the value of 1).
Primary data are shown in Table 3, with values representing the percentage distribution of each cell cycle phase in the total cell population.
(In flow cytometry, cells or beads pass a laser one at a time.)

The test system of experiment [6] is HCT116. Nature of the experiment: Test A: Cytostatic Cell Culture Assay (GI50), HCT116. The conditions noted are these: Homo sapiens, HCT-116, 120 h; HCT116 cells, 5 days, SRB; read-out: G150 Colon HCT116.
From the text: as §1, §2, §3, §4, §5

Experiment [7] deals with NCIH23. Briefly: Test A: Cytostatic Cell Culture Assay (GI50), NCIH23. The conditions noted are these: Homo sapiens, NCI-H23, 120 h; NCIH23 cells, 5 days, SRB; read-out: G150 Lung NCIH23.
From the text: as §1, §2, §3, §4, §5

For experiment [8], the system named is Hs578. Nature of the experiment: Test A: Cytostatic Cell Culture Assay (GI50), Hs578. Particulars: 120 h; Hs578 cells, 5 days, SRB; read-out: G150 Breast Hs578.
From the text: as §1, §2, §3, §4, §5

Setting [9] is: concentration corresponding to CC50, untreated control = 1.

Molecules are shown by their SMILES.

As to `OC[C@H]1O[C@@H](n2ccc3c(-c4ccco4)ncnc32)[C@H](O)[C@@H]1O` [Example 5, 4-(Furan-2-yl)-7-(β-D-ribofuranosyl)-7H-pyrrolo[2,3-d]pyrimidine], the IC50 in experiment [1] stood at 91 nM; in experiment [2], 7 nM; in experiment [3], 88 nM; in experiment [4], 20 nM; in experiment [6], 78 nM; in experiment [7], 4.2 µM. The IC50 in experiment [8] came to 49 nM. The values for the G1 % in experiment [5] (replicate 1) and in experiment [5] (replicate 2) were 26.14% and 23.61%, respectively. Moreover, the G2/M % in experiment [5] (replicate 1) came to 11.89%; in experiment [5] (replicate 2), 16.41%. Moreover, the results for the S % in experiment [5] (replicate 1) and in experiment [5] (replicate 2) were 61.98% and 59.99%, respectively. In addition, the “Relative change in cell cycle phase compared to untreated control, G1” value in experiment [5] (setting [9]) amounted to 0.57. For the same compound, the “Relative change in cell cycle phase compared to untreated control, G2/M” value in experiment [5] (setting [9]) was found to be 1.19. In experiment [5] (setting [9]), the “Relative change in cell cycle phase compared to untreated control, S” value amounted to 1.38.

As for `OC[C@H]1O[C@@H](n2cc(F)c3c(-c4ccc[nH]4)ncnc32)[C@H](O)[C@@H]1O` [Example 22], the IC50 stood at 176 nM in experiment [1]; 9 nM in experiment [2]; 195 nM in experiment [3]; 111 nM in experiment [4]; 453 nM in experiment [6]; 2.61 µM in experiment [7]. In experiment [8], the IC50 came to 315 nM.

For `OC[C@H]1O[C@@H](n2cc(F)c3c(-c4ccoc4)ncnc32)[C@H](O)[C@@H]1O` [Example 23, 5-Fluoro-4-(furan-3-yl)-7-(β-D-ribofuranosyl)-7H-pyrrolo[2,3-d]pyrimidine], the IC50 in experiment [1] was found to be 87 nM; in experiment [2] it was 5 nM; in experiment [3], 60 nM; in experiment [4] it was 39 nM; in experiment [6], 18 nM; in experiment [7], 4.64 µM. Besides, in experiment [8], the IC50 worked out at 177 nM.

With `OC[C@H]1O[C@@H](n2cc(F)c3c(-c4ccsc4)ncnc32)[C@H](O)[C@@H]1O` [Example 24, 5-Fluoro-7-(β-D-ribofuranosyl)-4-(thiophen-3-yl)-7H-pyrrolo[2,3-d]pyrimidine], the IC50 was determined as 105 nM in experiment [1]; 66 nM in experiment [2]; 379 nM in experiment [3]; 179 nM in experiment [4]; 145 nM in experiment [6]; 2.95 µM in experiment [7]. Besides, the IC50 in experiment [8] is 813 nM.

`OC[C@H]1O[C@@H](n2cc(F)c3c(-c4nccs4)ncnc32)[C@H](O)[C@@H]1O` [Example 25, 5-Fluoro-7-(β-D-ribofuranosyl)-4-(thiazol-2-yl)-7H-pyrrolo[2,3-d]pyrimidine]: the IC50 came to 175 nM in experiment [1]; 24 nM in experiment [2]; 902 nM in experiment [3]; 361 nM in experiment [4]; 1260 nM in experiment [6]; 4.98 µM in experiment [7]. Also, in experiment [8], the IC50 stood at 566 nM.

`OC[C@H]1O[C@@H](n2cc(F)c3c(-c4c[nH]cn4)ncnc32)[C@H](O)[C@@H]1O` [Example 26, 5-Fluoro-4-(1H-imidazol-4-yl)-7-(β-D-ribofuranosyl)-7H-pyrrolo[2,3-d]pyrimidine]: the IC50 in experiment [1] was 2110 nM; in experiment [2], 887 nM; in experiment [3], > 20000 nM; in experiment [4] it was 3590 nM; in experiment [6], > 20000 nM; in experiment [7], 7.62 µM. The IC50 in experiment [8] is 2110 nM.

With `OC[C@H]1O[C@@H](n2cc(F)c3c(-c4cc[nH]c4)ncnc32)[C@H](O)[C@@H]1O` [Example 27, 5-Fluoro-7-(β-D-ribofuranosyl)-4-(pyrrol-3-yl)-7H-pyrrolo[2,3-d]pyrimidine], the IC50 in experiment [1] was determined as 60 nM; in experiment [2], 10 nM; in experiment [3], 126 nM; in experiment [4], 65 nM; in experiment [6] it was 255 nM; in experiment [7], 1.6 µM. Besides, the IC50 in experiment [8] turned out to be 356 nM.

For `OC[C@H]1O[C@@H](n2cc(Cl)c3c(-c4ccccc4)ncnc32)[C@H](O)[C@@H]1O` [Example 28, 5-Chloro-4-phenyl-7-(β-D-ribofuranosyl)-7H-pyrrolo[2,3-d]pyrimidine], the IC50 in experiment [1] came out at 263 nM; in experiment [2], 138 nM; in experiment [3], 2470 nM; in experiment [4] it was 290 nM; in experiment [6] it was 1420 nM; in experiment [7] it was 5.02 µM. For the same compound, in experiment [8], the IC50 worked out at 13200 nM.

As for `OC[C@H]1O[C@@H](n2cc(Cl)c3c(-c4ccco4)ncnc32)[C@H](O)[C@@H]1O` [Example 29, 5-Chloro-4-(furan-2-yl)-7-(β-D-ribofuranosyl)-7H-pyrrolo[2,3-d]pyrimidine], the IC50 in experiment [1] is > 20000 nM; in experiment [2], 10000 nM; in experiment [3] it was 15200 nM; in experiment [4] it was 8150 nM; in experiment [6] it was > 20000 nM; in experiment [7] it was 13.2 µM. In addition, in experiment [8], the IC50 is > 20000 nM.

With `OC[C@H]1O[C@@H](n2cc(Cl)c3c(-c4cccs4)ncnc32)[C@H](O)[C@@H]1O` [Example 30, 5-Chloro-7-(β-D-ribofuranosyl)-4-(thiophen-2-yl)-7H-pyrrolo[2,3-d]pyrimidine], the IC50 in experiment [1] was 35 nM; in experiment [2], 13 nM; in experiment [3], 375 nM; in experiment [4], 81 nM; in experiment [6], 275 nM; in experiment [7], 2.02 µM. The IC50 in experiment [8] is 1640 nM.

With `OC[C@H]1O[C@@H](n2cc(Cl)c3c(-c4ccoc4)ncnc32)[C@H](O)[C@@H]1O` [Example 31, 5-Chloro-4-(furan-3-yl)-7-(β-D-ribofuranosyl)-7H-pyrrolo[2,3-d]pyrimidine], the IC50 in experiment [1] came to 1200 nM; in experiment [2], 54 nM; in experiment [3], 1050 nM; in experiment [4] it was 632 nM; in experiment [6], 1960 nM; in experiment [7], 5.26 µM. Moreover, in experiment [8], the IC50 is 1580 nM.

For the compound `OC[C@H]1O[C@@H](n2cc(Cl)c3c(-c4ccsc4)ncnc32)[C@H](O)[C@@H]1O` [Example 32, 5-Chloro-7-(β-D-ribofuranosyl)-4-(thiophen-3-yl)-7H-pyrrolo[2,3-d]pyrimidine], the IC50 in experiment [1] amounted to 118 nM; in experiment [2] it was 18 nM; in experiment [3], 378 nM; in experiment [4], 148 nM; in experiment [6], 101 nM; in experiment [7], 4.54 µM. Also, the IC50 in experiment [8] stood at 109 nM.

(Values after US8093226B2, “Cytostatic 7-deazapurine nucleosides” (Institute of Organic Chemistry and Biochemistry of the …, priority 2008, dated 2012).)
